#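 Briefly, cells in 96-well plates were exposed to five compound concentrations for 48 h, and endpoints were estimated by linear interpolation. TGI marks complete inhibition of growth.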
# What was measured:
# Assay in all cases: DTP human tumour cell line panel, 48 h
# RXF 393 renal = system: RXF 393 renal
# SN12C renal = system: SN12C renal
# CAKI-1 renal = system: CAKI-1 renal
# HT29 colon = system: HT29 colon
# EKVX NSCLC = system: EKVX NSCLC
# HL-60(TB) leukemia = system: HL-60(TB) leukemia
# OVCAR-8 ovarian = system: OVCAR-8 ovarian
# A498 renal = system: A498 renal
# RPMI-8226 leukemia = system: RPMI-8226 leukemia
# UACC-257 melanoma = system: UACC-257 melanoma
# MDA-MB-435 = system: MDA-MB-435
# HCT-15 colon = system: HCT-15 colon
# OVCAR-3 ovarian = system: OVCAR-3 ovarian
# KM12 colon = system: KM12 colon
# NCI-H23 lung = system: NCI-H23 lung
# LOX IMVI melanoma = system: LOX IMVI melanoma
# OVCAR-5 ovarian = system: OVCAR-5 ovarian
# UO-31 renal = system: UO-31 renal
# MDA-MB-231 breast = system: MDA-MB-231 breast
# MDA-N = system: MDA-N
# HOP-92 NSCLC = system: HOP-92 NSCLC
# HS 578T breast = system: HS 578T breast
# CCRF-CEM leukemia = system: CCRF-CEM leukemia
# OVCAR-4 ovarian = system: OVCAR-4 ovarian
# NCI/ADR-RES ovarian = system: NCI/ADR-RES ovarian
# PC-3 prostate = system: PC-3 prostate
# HCC-2998 colon = system: HCC-2998 colon
# M14 melanoma = system: M14 melanoma
# U251 CNS = system: U251 CNS
# IGROV1 ovarian = system: IGROV1 ovarian
# SF-539 CNS = system: SF-539 CNS
# SK-MEL-2 melanoma = system: SK-MEL-2 melanoma
# SK-MEL-5 melanoma = system: SK-MEL-5 melanoma
# HCT-116 colon = system: HCT-116 colon
# SK-MEL-28 melanoma = system: SK-MEL-28 melanoma
# A549 NSCLC = system: A549 NSCLC
# SF-295 CNS = system: SF-295 CNS
# 786-0 renal = system: 786-0 renal
# COLO 205 colon = system: COLO 205 colon
# TK-10 renal = system: TK-10 renal
# BT-549 breast = system: BT-549 breast
# MALME-3M melanoma = system: MALME-3M melanoma
# K-562 leukemia = system: K-562 leukemia
# MCF7 breast = system: MCF7 breast
# ACHN renal = system: ACHN renal
# NCI-H522 lung = system: NCI-H522 lung
# SNB-75 CNS = system: SNB-75 CNS
# SF-268 CNS = system: SF-268 CNS
# UACC-62 melanoma = system: UACC-62 melanoma
# T-47D breast = system: T-47D breast
# DU-145 prostate = system: DU-145 prostate
# SW-620 colon = system: SW-620 colon
# SNB-19 CNS = system: SNB-19 CNS
# HOP-62 NSCLC = system: HOP-62 NSCLC
# NCI-H226 lung = system: NCI-H226 lung
# SK-OV-3 ovarian = system: SK-OV-3 ovarian
# MOLT-4 leukemia = system: MOLT-4 leukemia
# NCI-H460 lung = system: NCI-H460 lung
# SR leukemia = system: SR leukemia
compound,measurement,setting,value
O=C(NCCCN1CCN(CCCNC(=O)Nc2cccc3ccccc23)CC1)Nc1cccc2ccccc12,TGI,RXF 393 renal,27.6 µM
same,TGI,SN12C renal,30.7 µM
same,TGI,CAKI-1 renal,31.7 µM
same,TGI,HT29 colon,44.3 µM
same,TGI,EKVX NSCLC,33.2 µM
same,TGI,HL-60(TB) leukemia,67.2 µM
same,TGI,OVCAR-8 ovarian,38.7 µM
same,TGI,A498 renal,30.5 µM
same,TGI,RPMI-8226 leukemia,40 µM
same,TGI,UACC-257 melanoma,25.9 µM
same,TGI,MDA-MB-435,31.4 µM
same,TGI,HCT-15 colon,31.9 µM
same,TGI,OVCAR-3 ovarian,26.5 µM
same,TGI,KM12 colon,43.3 µM
same,TGI,NCI-H23 lung,33.6 µM
same,TGI,LOX IMVI melanoma,20.7 µM
same,TGI,OVCAR-5 ovarian,28.3 µM
same,TGI,UO-31 renal,31.2 µM
same,TGI,MDA-MB-231 breast,8.21 µM
same,TGI,MDA-N,30 µM
same,TGI,HOP-92 NSCLC,29.5 µM
same,TGI,HS 578T breast,49.1 µM
same,TGI,CCRF-CEM leukemia,71.3 µM
same,TGI,OVCAR-4 ovarian,44.1 µM
same,TGI,NCI/ADR-RES ovarian,> 100 µM
same,TGI,PC-3 prostate,21.5 µM
same,TGI,HCC-2998 colon,4.58 µM
same,TGI,M14 melanoma,29.9 µM
same,TGI,U251 CNS,18.9 µM
same,TGI,IGROV1 ovarian,35.9 µM
same,TGI,SF-539 CNS,34.3 µM
same,TGI,SK-MEL-2 melanoma,34.2 µM
same,TGI,SK-MEL-5 melanoma,30.2 µM
same,TGI,HCT-116 colon,28 µM
same,TGI,SK-MEL-28 melanoma,28.7 µM
same,TGI,A549 NSCLC,33.5 µM
same,TGI,SF-295 CNS,27.4 µM
same,TGI,786-0 renal,34.1 µM
same,TGI,COLO 205 colon,31.5 µM
same,TGI,TK-10 renal,28.4 µM
same,TGI,BT-549 breast,27.1 µM
same,TGI,MALME-3M melanoma,11.8 µM
same,TGI,K-562 leukemia,> 100 µM
same,TGI,MCF7 breast,36.4 µM
same,TGI,ACHN renal,30.1 µM
same,TGI,NCI-H522 lung,33.4 µM
same,TGI,SNB-75 CNS,36.5 µM
same,TGI,SF-268 CNS,38.8 µM
same,TGI,UACC-62 melanoma,11.9 µM
same,TGI,T-47D breast,32.1 µM
same,TGI,DU-145 prostate,31.3 µM
same,TGI,SW-620 colon,22.9 µM
same,TGI,SNB-19 CNS,48.4 µM
same,TGI,HOP-62 NSCLC,23.9 µM
c1ccc([P+](c2ccccc2)(c2ccccc2)C2c3ccccc3-c3ccccc32)cc1,TGI,RXF 393 renal,5.06 µM
same,TGI,SN12C renal,7.29 µM
same,TGI,CAKI-1 renal,69.1 µM
same,TGI,HT29 colon,4.04 µM
same,TGI,HL-60(TB) leukemia,3.92 µM
same,TGI,OVCAR-8 ovarian,10.1 µM
same,TGI,A498 renal,4.51 µM
same,TGI,UACC-257 melanoma,5.91 µM
same,TGI,MDA-MB-435,3.18 µM
same,TGI,NCI-H226 lung,5.94 µM
same,TGI,HCT-15 colon,11 µM
same,TGI,OVCAR-3 ovarian,5.68 µM
same,TGI,NCI-H23 lung,5.38 µM
same,TGI,LOX IMVI melanoma,4.96 µM
same,TGI,OVCAR-5 ovarian,42 µM
same,TGI,UO-31 renal,8.03 µM
same,TGI,MDA-MB-231 breast,6.84 µM
same,TGI,MDA-N,7.84 µM
same,TGI,HS 578T breast,5.75 µM
same,TGI,CCRF-CEM leukemia,7.61 µM
same,TGI,SK-OV-3 ovarian,4.33 µM
same,TGI,NCI/ADR-RES ovarian,41.9 µM
same,TGI,PC-3 prostate,5.46 µM
same,TGI,HCC-2998 colon,9.62 µM
same,TGI,M14 melanoma,11.3 µM
same,TGI,U251 CNS,4.12 µM
same,TGI,IGROV1 ovarian,13.6 µM
same,TGI,SF-539 CNS,6.98 µM
same,TGI,SK-MEL-2 melanoma,3.87 µM
same,TGI,SK-MEL-5 melanoma,3.82 µM
same,TGI,HCT-116 colon,2.39 µM
same,TGI,MOLT-4 leukemia,7.12 µM
same,TGI,SK-MEL-28 melanoma,8.03 µM
same,TGI,A549 NSCLC,14.3 µM
same,TGI,NCI-H460 lung,10.2 µM
same,TGI,SF-295 CNS,5.35 µM
same,TGI,786-0 renal,10.9 µM
same,TGI,COLO 205 colon,2.63 µM
same,TGI,TK-10 renal,9.21 µM
same,TGI,BT-549 breast,7.44 µM
same,TGI,MALME-3M melanoma,15.1 µM
same,TGI,K-562 leukemia,> 100 µM
same,TGI,MCF7 breast,10 µM
same,TGI,ACHN renal,7.79 µM
same,TGI,NCI-H522 lung,6.06 µM
same,TGI,SNB-75 CNS,7.06 µM
same,TGI,SF-268 CNS,9.37 µM
same,TGI,UACC-62 melanoma,5.02 µM
same,TGI,T-47D breast,12.5 µM
same,TGI,DU-145 prostate,60.6 µM
same,TGI,SW-620 colon,16.2 µM
same,TGI,SNB-19 CNS,10.3 µM
same,TGI,HOP-62 NSCLC,4.7 µM
CCCCc1c2c(c(C)c3c1C(=O)OC3)Oc1ccccc1O2,TGI,RXF 393 renal,7.98 µM
same,TGI,SN12C renal,38.3 µM
same,TGI,CAKI-1 renal,> 100 µM
same,TGI,HT29 colon,> 40.9 µM
same,TGI,EKVX NSCLC,> 100 µM
same,TGI,OVCAR-8 ovarian,35.7 µM
same,TGI,A498 renal,> 46.5 µM
same,TGI,RPMI-8226 leukemia,> 24.5 µM
same,TGI,UACC-257 melanoma,96.9 µM
same,TGI,MDA-MB-435,1.59 µM
same,TGI,NCI-H226 lung,> 81.1 µM
same,TGI,HCT-15 colon,> 100 µM
same,TGI,OVCAR-3 ovarian,1.51 µM
same,TGI,KM12 colon,> 100 µM
same,TGI,NCI-H23 lung,> 100 µM
same,TGI,LOX IMVI melanoma,> 100 µM
same,TGI,OVCAR-5 ovarian,> 100 µM
same,TGI,UO-31 renal,> 100 µM
same,TGI,MDA-MB-231 breast,> 55.6 µM
same,TGI,MDA-N,0.456 µM
same,TGI,HOP-92 NSCLC,> 100 µM
same,TGI,HS 578T breast,5.8 µM
same,TGI,CCRF-CEM leukemia,> 100 µM
same,TGI,OVCAR-4 ovarian,> 95.6 µM
same,TGI,SK-OV-3 ovarian,> 100 µM
same,TGI,NCI/ADR-RES ovarian,20.5 µM
same,TGI,PC-3 prostate,> 34.8 µM
same,TGI,HCC-2998 colon,3.22 µM
same,TGI,M14 melanoma,> 100 µM
same,TGI,U251 CNS,14.9 µM
same,TGI,IGROV1 ovarian,> 100 µM
same,TGI,SF-539 CNS,3.67 µM
same,TGI,SK-MEL-2 melanoma,> 33.7 µM
same,TGI,SK-MEL-5 melanoma,> 26.2 µM
same,TGI,HCT-116 colon,27.1 µM
same,TGI,MOLT-4 leukemia,> 100 µM
same,TGI,SR leukemia,> 40.1 µM
same,TGI,SK-MEL-28 melanoma,> 100 µM
same,TGI,A549 NSCLC,> 43.2 µM
same,TGI,NCI-H460 lung,18.2 µM
same,TGI,SF-295 CNS,> 51.4 µM
same,TGI,786-0 renal,> 36.9 µM
same,TGI,COLO 205 colon,7.69 µM
same,TGI,TK-10 renal,> 71.3 µM
same,TGI,BT-549 breast,> 100 µM
same,TGI,MALME-3M melanoma,> 100 µM
same,TGI,K-562 leukemia,22.4 µM
same,TGI,MCF7 breast,> 100 µM
same,TGI,ACHN renal,> 100 µM
same,TGI,NCI-H522 lung,1.15 µM
same,TGI,SNB-75 CNS,13.4 µM
same,TGI,SF-268 CNS,> 100 µM
same,TGI,UACC-62 melanoma,> 100 µM
same,TGI,T-47D breast,> 100 µM
same,TGI,DU-145 prostate,> 43.8 µM
same,TGI,SW-620 colon,> 42 µM
same,TGI,SNB-19 CNS,> 75 µM
same,TGI,HOP-62 NSCLC,> 68.3 µM
CCCNC(=O)N1CC(CN2CCN(c3ccccc3)CC2)O/C1=N/C(=O)Nc1ccccc1 (configuration not stated),TGI,RXF 393 renal,> 100 µM
same,TGI,SN12C renal,> 100 µM
same,TGI,CAKI-1 renal,> 100 µM
same,TGI,HT29 colon,> 100 µM
same,TGI,EKVX NSCLC,> 100 µM
same,TGI,HL-60(TB) leukemia,> 100 µM
same,TGI,A498 renal,> 100 µM
same,TGI,RPMI-8226 leukemia,> 100 µM
same,TGI,UACC-257 melanoma,> 100 µM
same,TGI,MDA-MB-435,> 100 µM
same,TGI,KM12 colon,> 100 µM
same,TGI,NCI-H23 lung,> 100 µM
same,TGI,LOX IMVI melanoma,> 100 µM
same,TGI,OVCAR-5 ovarian,> 100 µM
same,TGI,UO-31 renal,> 100 µM
same,TGI,MDA-MB-231 breast,> 100 µM
same,TGI,MDA-N,> 100 µM
same,TGI,HOP-92 NSCLC,> 100 µM
same,TGI,HS 578T breast,> 100 µM
same,TGI,OVCAR-4 ovarian,> 100 µM
same,TGI,SK-OV-3 ovarian,> 100 µM
same,TGI,NCI/ADR-RES ovarian,> 100 µM
same,TGI,PC-3 prostate,> 100 µM
same,TGI,HCC-2998 colon,> 100 µM
same,TGI,M14 melanoma,> 100 µM
same,TGI,U251 CNS,> 100 µM
same,TGI,IGROV1 ovarian,> 100 µM
same,TGI,SK-MEL-2 melanoma,> 100 µM
same,TGI,SK-MEL-5 melanoma,94.1 µM
same,TGI,HCT-116 colon,> 100 µM
same,TGI,MOLT-4 leukemia,> 100 µM
same,TGI,SK-MEL-28 melanoma,> 100 µM
same,TGI,A549 NSCLC,> 100 µM
same,TGI,NCI-H460 lung,> 100 µM
same,TGI,SF-295 CNS,> 100 µM
same,TGI,786-0 renal,> 100 µM
same,TGI,COLO 205 colon,74.1 µM
same,TGI,TK-10 renal,> 100 µM
same,TGI,BT-549 breast,> 100 µM
same,TGI,MALME-3M melanoma,> 100 µM
same,TGI,K-562 leukemia,> 100 µM
same,TGI,MCF7 breast,> 100 µM
same,TGI,ACHN renal,> 100 µM
same,TGI,NCI-H522 lung,> 100 µM
same,TGI,SNB-75 CNS,> 100 µM
same,TGI,SF-268 CNS,> 100 µM
same,TGI,UACC-62 melanoma,> 100 µM
same,TGI,T-47D breast,> 100 µM
same,TGI,DU-145 prostate,> 100 µM
same,TGI,SW-620 colon,> 100 µM
same,TGI,SNB-19 CNS,> 100 µM
same,TGI,HOP-62 NSCLC,> 100 µM

# Source: PubChem BioAssay (NCI)
